Measurements from patent US4681879A, “11-substituted 5H,11H-pyrrolo[2,1-c][1,4]benzoxazepines as antipsychotic and analgesic agents” (Hoechst-Roussel Pharmaceuticals Inc., priority 1985, dated 1987).
Counter-ions that a name gives are not always drawn.

Assays:
apomorphine climbing = test: Antipsychotic activity, climbing mice assay (apomorphine); format: in vivo, mice (CK-1 male); details: Mus musculus; ip, 30 minutes prior to apomorphine 1.5 mg/kg sc
Experimental: Antipsychotic activity is determined in the climbing mice assay by methods similar to those described by P. Protais, et al., Psychopharmacol., 50, 1 (1976) and B. Costall, Eur. J. Pharmacol., 50, 39 (1978).
The subject CK-1 male mice (23-27 grams) are group-housed under standard laboratory conditions. The mice are individually placed in wire mesh stick cages (4"×4" by 10") and are allowed one hour for adaptation and exploration of the new environment. Then apomorphine is injected subcutaneously at 1.5 mg/kg, a dose causing climbing in all subjects for 30 minutes. Compounds to be tested for antipsychotic activity are injected intraperitoneally 30 minutes prior to the apomorphine challenge at a screening dose of 10 mg/kg.
For evaluation of climbing, 3 readings are taken at 10, 20 and 30 minutes after apomorphine administration according to the following scale: […]
______________________________________
4 paws on bottom (no climbing)
2 paws on the wall (rearing)
4 paws on the wall (full climb)
Mice consistently climbing before the injection of apomorphine are discarded.
With full-developed apomorphine climbing, the animals are hanging onto the cage walls, rather motionless, over longer periods of time. By contrast, climbs due to mere motor stimulation usually last only a few seconds.
The climbing scores are individually totaled (maximum score: 6 per mouse over 3 readings) and the total score of the control group (vehicle intraperitoneally-apomorphine subcutaneously) is seet to 100%. ED50 values with 95% confidence limits, calculated by a linear regression analysis of some of the compounds of this invention are presented in Table 1.

[1] = system: 2-phenyl-1,4-benzoquinone-induced writhing; test: Analgesic activity, 2-phenyl-1,4-benzoquinone-induced writhing test in mice; format: in vivo; details: Mus musculus, sc; read-out: ANALGESIC ACTIVITY (Phenylquinone Writhing) ED50
Excerpt: Compounds of the present invention are useful as analgesic agents due to their ability to alleviate pain in mammals. […] Exptl. Biol. Med., 95, 729 (1957)].

Row | Structure (SMILES) | ED50 (apomorphine climbing) | ED50 [1]
1 | c1ccc(OCCCN2CCC(C3Oc4ccccc4Cn4cccc43)CC2)cc1 (stereo not drawn) [11-{1-[3-(Phenoxy)propyl]piperidin-4-yl}-5H,11H-pyrrolo[2,1-c][1,4]benzoxazepine] | 1.2 mg/kg | 4.2 mg/kg
2 | O=C(O)C(=O)O.O=c1[nH]c2ccccc2n1CCCN1CCC(C2Oc3ccccc3Cn3cccc32)CC1 (stereo not drawn) [11-{1-[3-(1,3-Dihydro-2-oxo-2H-benzimidazol-1-yl)propyl]piperidin-4-yl}-5H,11H-pyrrolo[2,1-c][1,4]benzoxazepine oxalate] | 0.7 mg/kg | 0.3 mg/kg
3 | Cc1ccc(CCN2CCC(C3Oc4ccccc4Cn4cccc43)CC2)cc1 (stereo not drawn) [11-{1-[2-(4-Methylphenyl)ethyl]piperidin-4-yl}-5H,11H-pyrrolo[2,1-c][1,4]benzoxazepine] | 1.2 mg/kg | 
4 | COc1cccc(CCN2CCC(C3Oc4ccccc4Cn4cccc43)CC2)c1 (stereo not drawn) [11-{1-[2-(3-Methoxyphenyl)ethyl]piperidin-4-yl}-5H,11H-pyrrolo[2,1-c][1,4]benzoxazepine] | 0.9 mg/kg | 
5 | O=C(CCN1CCC(C2Oc3ccccc3Cn3cccc32)CC1)c1ccccc1.O=C(O)C(=O)O (stereo not drawn) [1-Phenyl-3-[4-[5H,11H-pyrrolo[2,1-c][1,4]benzoxazepin-11-yl]-1-piperidinyl]-1-propanone oxalate] | 1.6 mg/kg | 1.6 mg/kg
6 | c1csc(CCN2CCC(C3Oc4ccccc4Cn4cccc43)CC2)c1 (stereo not drawn) [11-{1-[2-(2-Thienyl)ethyl]piperidin-4-yl}-5H,11H-pyrrolo[2,1-c][1,4benzoxazepine] | 1.8 mg/kg | 
7 | COc1cccc(CCN2CCC(C3Oc4ccccc4Cn4cccc43)CC2)c1OC.O=C(O)/C=C/C(=O)O (stereo not drawn) [11-{1-[2-(2,3-Dimethoxyphenyl)ethyl]piperidin-4-yl}-5H,11H-pyrrolo[2,1-c][1,4]benzoxazepine fumarate] | 3 mg/kg | 
8 | Cc1[nH]c2ccccc2c1CCCN1CCC(C2Oc3ccccc3Cn3cccc32)CC1.O=C(O)C(=O)O (stereo not drawn) [11-{1-[3-(2-Methylindol-3-yl)propyl]piperidin-4-yl}-5H,11H-pyrrolo[2,1-c][1,4]benzoxazepine oxalate] | 2.3 mg/kg | 
9 | Fc1ccc(CCN2CCC(C3Oc4ccccc4Cn4cccc43)CC2)cc1.O=C(O)C(=O)O (stereo not drawn) [11-{1-[2-(4-Fluorophenyl)ethyl]piperidin-4-yl}-5H,11H-pyrrolo[2,1-c][1,4]benzoxazepine oxalate] | 3.1 mg/kg | 
10 | Clc1ccc(CCN2CCC(C3Oc4ccccc4Cn4cccc43)CC2)cc1 (stereo not drawn) [11-{1-[2-(4-Chlorophenylethyl)]piperidin-4-yl}-5H,11H-pyrrolo[2,1-c][1,4]benzoxazepine] | 2.1 mg/kg | 
11 | O=C(CCN1CCC(C2Oc3ccccc3Cn3cccc32)CC1)c1ccc(Cl)cc1 (stereo not drawn) [1-(4-Chlorophenyl)-3-[4-]5H,11H-pyrrolo[2,1-c][1,4]benzoxazepin-11-yl]-1-piperidinyl]-1-propanone] | 5.5 mg/kg | 
12 | Oc1ccc(CCN2CCC(C3Oc4ccccc4Cn4cccc43)CC2)cc1 (stereo not drawn) [11-{1-[2-(4-Hydroxyphenyl)ethyl]piperidin-4-yl}-5H,11H-pyrrolo[2,1-c][1,4]benzoxazepine] | 0.3 mg/kg | 
13 | O=[N+]([O-])c1ccc(CCN2CCC(C3Oc4ccccc4Cn4cccc43)CC2)cc1 (stereo not drawn) [11-{1-[2-(4-Nitrophenylethyl)]piperidin-4-yl}-5H,11H-pyrrolo[2,1-c][1,4]benzoxazepine] | 3.5 mg/kg | 4.1 mg/kg
14 | Fc1ccc2c(CCCN3CCC(C4Oc5ccccc5Cn5cccc54)CC3)noc2c1.O=C(O)C(=O)O (stereo not drawn) [11-{1-[3-(6-Fluoro-1,2-benzisoxazol-3-yl)propyl]piperidin-4-yl}-5H,11H-pyrrolo[2,1-c][1,4]benzoxazepine oxalate] | 2.1 mg/kg | 5.1 mg/kg
15 | COc1ccc(CCN2CCC(C3Oc4ccccc4Cn4cccc43)CC2)cc1.O=C(O)C(=O)O (stereo not drawn) [11-{1-[2-(4-Methoxyphenyl)ethyl]piperidin-4-yl}-5H,11H-pyrrolo[2,1-c][1,4]benzoxazepine oxalate] | 0.3 mg/kg | 0.3 mg/kg
16 | c1ccc(CCCN2CCC(C3Oc4ccccc4Cn4cccc43)CC2)cc1 (stereo not drawn) [11-{1-[3-(Phenyl)propyl]piperidin-4-yl}-5H,11H-pyrrolo[2,1-c][1,4[benzoxazepine oxalate] | 2 mg/kg | 
17 | O=C(O)C(=O)O.O=c1[nH]c2ccccc2n1CCN1CCC(C2Oc3ccccc3Cn3cccc32)CC1 (stereo not drawn) [11-{1-[2-(1,3-Dihydro-2-oxo-2H-benzimidazol-1-yl)ethyl]piperidin-4-yl}-5H,11H-pyrrolo[2,1-c][1,4]benzoxazepine oxalate] | 3.2 mg/kg | 0.9 mg/kg
18 | O=C(O)C(=O)O.c1ccc(CCN2CCC(C3Oc4ccccc4Cn4cccc43)CC2)cc1 (stereo not drawn) [11-{1-[2-(Phenyl)ethyl]piperidin-4-yl}-5H,11H-pyrrolo[2,1-c][1,4]benzoxazepine oxalate] | 3.1 mg/kg | 
19 | COc1ccc(CCN2CCC(C3Oc4ccccc4Cn4cccc43)CC2)cc1OC (stereo not drawn) [11-{1-[2-(3,4-Dimethoxyphenyl)ethyl]piperidin-4-yl}-5H,11H-pyrrolo[2,1-c][1,4]benzoxazepine] | 0.3 mg/kg | 0.1 mg/kg
20 | CN(C)c1ccc(CCN2CCC(C3Oc4ccccc4Cn4cccc43)CC2)cc1 (stereo not drawn) [11-{1-[2-(4-Dimethylaminophenylethyl)]piperidin-4-yl}-5H,11H-pyrrolo[2,1-c][1,4]benzoxazepine] | 1.2 mg/kg | 0.4 mg/kg
21 | CCOc1ccc(CCN2CCC(C3Oc4ccccc4Cn4cccc43)CC2)cc1 (stereo not drawn) [11-{1-[2-(4-Ethoxyphenylethyl)]piperidin-4-yl}-5H,11H-pyrrolo[2,1-c][1,4]benzoxaxepine] | 1.3 mg/kg | 1.9 mg/kg
22 | CCCCN1CCC(C2Oc3ccccc3Cn3cccc32)CC1 (stereo not drawn) [11-[(1-Butyl)piperidin-4-yl]-5H,11H-pyrrolo[2,1-c][1,4]benzoxazepine] | 3.8 mg/kg | 0.4 mg/kg
